Here are results for 23 compounds from US5589472A, “Diindolo compounds and pharmaceutical compositions containing them” (priority 1995, dated 1996).

For one test, the target named is Protein Kinase C ("PKC"). The test can be described thus: Protein Kinase C (PKC) in vitro inhibition (histone III-S phosphorylation). It counts as biochemical. Conditions: partially purified rat brain PKC, 5 μM ATP, 23° C., 15 minutes. How it is done: A. Protein Kinase C ("PKC") Protocol
Protein Kinase C (PKC) was partially purified from rat brain by chromatography on DEAE-Sephacel according to Shearman et al, Methods in Enzymology […] (1989) and Bishop et al, Biochemical Pharmacology 40:2129-2135 (1990)which are hereby incorporated by reference. PKC was assayed in a reaction mixture (0.25 mL total volume) containing: 20 mM Tris-HCl (pH 7.5); 200 μg/mL histone III-S 10 mM MgCl2; 5 μM [γ-^32 ] ATP (4×10^6 cpm/nmol); 200 μM CaCl2; 32 μg/mL phosphatidylserine; 1.6 μg/mL 1-oleoyl-2-acetyl glycerol and various concentrations of compounds of formula I of the invention were added from stock solutions in dimethylsulfoxide (DMSO). The final concentration of DMSO in the reaction was 2%. Reactions were started by addition of approximately 7 μg of partially purified PKC and allowed to proceed at 23° C. for 15 minutes. Reactions were terminated by addition of 1 mL of ice-cold 15% trichloracetic acid and 1 mL of cold 0.5 mg/mL bovine serum albumin to precipitate the histone III-S substrate. After 10 minutes on ice, precipitated phosphoproteins were collected on Whatman GF/C filters using a Brandel cell harvester. Filters were placed in scintillation vials with 5 mL of Ready Safe scintillation cocktail and radioactivity trapped on the filter was quantitated by liquid scintillation counting. Percent inhibition of PKC activity was calculated relative to the activity observed in the DMSO controls.

Test [1] concerns HT1080 human fibrosarcoma cells. As to the kind of experiment: Tumor Cell Invasion Assay (Matrigel). Particulars: HT-1080, @ 45 μg/mL, 5 hours at 37° C. It counts as cell-based. How it is done: Tumor Cell Invasion Assay
The cell invasion assay quantitates the ability of malignant cells to invade a reconstituted basement membrane matrix. The assay is performed essentially as described in the two articles which are cited at the end of this sentence and which are herein incorporated by reference. Kramer et al Invasion of reconstituted basement membrane matrix by metastatic tumor cells. Cancer Res. 46: […]; and Albini et al A Rapid in vitro assay for quantitating the invasive potential of tumor cells. Cancer Res. 3239-3245, 198. Modifications were made to permit evaluation of pharmacologic effectors in this system and to increase screening throughput.
Polyvinylpyrrolidone-free polycarbonate filters (25×80 mm; 8 μm pore size (Nucleopore, Pleasantan, Calif.) were coated with 100 μg human fibronectin (Boehringer-Mannheim Corp., Indianapolis, Ind.) for 1 hour, permitted to air dry 5 to 10 minutes, and then coated overnight with Matrigel (500 μg/filter; Collaborative Research, Bedford, Mass.). Filters were then rehydrated with serum-free DMEM and assembled into 48-microwell chemotaxis chambers (Neuroprobe, Cabin Johbn, Md.). See Blood et al Identification of a tumor cell receptor for VGVAPG, an elastin-derived chemotactic peptide. J. Cell Biol. 107:1987-1994, 1988 which is herein incorporated by reference. Compounds tested were placed in upper wells of the chambers with HT1080 human fibrosarcoma cells (3.5×10^4 cells/well). For primary screens the final concentration of compounds was 45 μg/ml.
Chambers were incubated for 5 hours at 37° C. in a 5% CO2 humidified atmosphere. After incubation chambers were disassembled and the filters were fixed and stained with Diff-Quik reagents (Baxter Scientific, McGaw Park, Ind.). […] The filter was then mounted between 2 glass slides and tumor cells that had invaded the Matrigel barrier in each microwell were quantitated as "% area covered by cells" with a Cue-2 Image Analysis System (Olympus Corp., Lake Success, N.Y.). When assayed under these conditions HT1080 cells (with or without Dimethylsulfoxide (DMSO) as a vehicle control) typically invade such that 34-40% surface is covered by cells and an invasion to this degree is defined as 100% invasion for the purposes of this test. Effects of compounds on the invasion are expressed as % inhibition based on the value obtained with vehicle control.

Test [2] concerns Superoxide generation in human neutrophils. As to the kind of experiment: Neutrophil test: inhibition of superoxide generation in human neutrophils. Type of test: cell-based. Conditions: 0.25 h, SO release induced by fMLP (100 nM) or PMA (100 nM), stimulus not stated, 15 minutes at 37° C. The text has this: Inhibition of Superoxide Generation in Human Neutrophils
One of the histological changes which occurs in psoriasis is infiltration of neutrophils into epidermis and dermis. Superoxide (SO) generation by neutrophils causes oxidative tissue damage during inflammatory processes. PKC plays an essential role in SO release in neutrophils. Formyl peptides (fMLP), important chemoattractants involved in cell recruitment to local inflammatory sites, promote the release of SO anion. The tumor promoting phorbol ester, phorbol-12 myristate-13-acetate (PMA), also induces SO release.
Neutrophils were prepared from human peripheral blood. SO release was induced by fMLP (100 nM) or PMA (100 nM) and measured as SO dismutase-inhibitable reduction of cytochrome c. Preincubation of the compound tested with 3-5×10^6 cells was for 15 minutes in the presence of cytochalasin B ([…]) before addition of the stimulant, fMLP or PMA. 15 minutes after stimulation at 37° C., the reaction was stopped. The quantity of SO anion release was determined as the difference between the absorbance at 550 nm in the presence and absence of SO dismutase.
Antiinflammatory activity of the compounds of the invention was determined by use of the processes set forth in the following literature which is hereby incorporated by reference. Fischer et al Carcinogenesis 11:[…]; and Gupta et al Soc. Inv. Dermotol 91:5, 486-491, 1988 and Nakadate et al J. Pharmacolo. 38 161-168,(1985); and Viaje et al Cancer Res. 37,1530-1536, 1977.

For another test, the system named is Mouse skin. As to the kind of experiment: Mouse Skin Assay (TPA-induced blister formation). It counts as in vivo. Conditions: compound in acetone (25 μl), then TPA (12.5 μl); evaluated 18 hours after treatment. How it is done:
Mice were treated first with compounds dissolved in acetone (25 μl), and then 30 seconds with TPA (12.5 μl). Blister formation was evaluated 18 hours after treatment. Each mouse was scored on a scale of 1-4 where 4 equals presence of a complete blister, 3 equals slight reduction in blister formation, 2 equals a 50% reduction in blister formation and 1 equals a complete absence of blisters.

[3] abbreviates: read-out: IN VITRO INHIBITION OF PKC IC50 (nanomolar) except where otherwise indicated.
[4] abbreviates: read-out: IN VITRO INHIBITION OF PKC IC50 (unit indicated in cell).

Like-named read-outs stand apart in the source and are kept apart here.

Consider `C[C@@H]1n2c3ccccc3c3c4c(c5c6ccccc6n(c5c32)[C@@H](C)S1(=O)=O)C(=O)NC4=O` (relative stereo) [trans-25], for which the IC50 at Protein Kinase C ("PKC") (setting [3]) is 120 nM.
As to `N=C1NC(=O)c2c1c1c3ccccc3n3c1c1c2c2ccccc2n1CN(Cc1ccccc1)C3` [Compound 1], the IC50 on Protein Kinase C ("PKC") (setting [4]) is over 5000 nM.
`O=C1NC(=O)c2c1c1c3ccccc3n3c1c1c2c2ccccc2n1CN(Cc1ccccc1)C3` [Compound 2] showed an inhibition at 45 µg/mL in test [1] of 35%. Also, the IC50 at Protein Kinase C ("PKC") (setting [4]) was over 50000 nM.
As to `O=C1NC(=O)c2c1c1c3ccccc3n3c1c1c2c2ccccc2n1CN(O)C3` [Compound 3], 45 µg/mL produced 48% inhibition in test [1]. The 50% inhibitory concentration (IC50) on Protein Kinase C ("PKC") (setting [3]) is 90 nM.
For `O=C1NC(=O)c2c1c1c3ccccc3n3c1c1c2c2ccccc2n1CNC3` [Compound 4] the same measures were 86% and 145 nM.
For `CN1Cn2c3ccccc3c3c4c(c5c6ccccc6n(c5c32)C1)C(=O)NC4=N` [Compound 5] the same measures were 46% and 150 nM.
For `CN1Cn2c3ccccc3c3c4c(c5c6ccccc6n(c5c32)C1)C(=O)NC4=O` [Compound 6], in that order: 66% and 86 nM.
`O=C(O)CN1Cn2c3ccccc3c3c4c(c5c6ccccc6n(c5c32)C1)C(=O)NC4=O` [Compound 7]: at 45 µg/mL the inhibition in test [1] was 0%. Further, the IC50 at Protein Kinase C ("PKC") (setting [3]) was determined as 480 nM.
For `CN(C)CCN1Cn2c3ccccc3c3c4c(c5c6ccccc6n(c5c32)C1)C(=O)NC4=N` [Compound 8] the same measures were 46% and 160 nM.
For `CN(C)CCN1Cn2c3ccccc3c3c4c(c5c6ccccc6n(c5c32)C1)C(=O)NC4=O` [Compound 9] the same measures were 52% and 120 nM.
For `O=C1NC(=O)c2c1c1c3ccccc3n3c1c1c2c2ccccc2n1CN(CCO)C3` [Compound 10], in that order: 72% and 17 nM.
As to `COCCOCCOCCN1Cn2c3ccccc3c3c4c(c5c6ccccc6n(c5c32)C1)C(=O)NC4=N` [Compound 11], the inhibition at 45 µg/mL in test [1] turned out to be 42%. On Protein Kinase C ("PKC") (setting [3]), the IC50 was about 500 nM.
For `COCCOCCOCCN1Cn2c3ccccc3c3c4c(c5c6ccccc6n(c5c32)C1)C(=O)NC4=O` [Compound 12] the same measures were 20% and about 100 nM.
For `CN1Cn2c3ccccc3c3c4c(c5c6ccccc6n(c5c32)C1)C(=O)NC4` [Compound 13] the same measures were 26% and 90 nM.
For the compound `N=C1NC(=O)c2c1c1c3ccccc3n3c1c1c2c2ccccc2n1COC3` [Compound 15], the inhibition at 45 µg/mL in test [1] was 30%. In addition, on Protein Kinase C ("PKC") (setting [3]), the IC50 was determined as 62 nM.
For `O=C1NC(=O)c2c1c1c3ccccc3n3c1c1c2c2ccccc2n1COC3` [Compound 16], in that order: 46% and 11 nM.
In turn, `N=C1NC(=O)c2c1c1c3ccccc3n3c1c1c2c2ccccc2n1CSC3` [Compound 17] returned an inhibition at 45 µg/mL in test [1] of 53%. Also, the figures for the IC50 (in test [2]; at Protein Kinase C ("PKC") (setting [3])) were over 10 µM and 24 nM, respectively.
For `O=C1NC(=O)c2c1c1c3ccccc3n3c1c1c2c2ccccc2n1CSC3` [Compound 18], in that order: 18%, over 10 µM and 14 nM.
`O=C1NCc2c1c1c3ccccc3n3c1c1c2c2ccccc2n1CSC3` [Compound 19]: the inhibition at 45 µg/mL in test [1] was 100%. Besides, on Protein Kinase C ("PKC") (setting [3]), the IC50 turned out to be 7 nM.
Take `O=C1NC(=O)c2c1c1c3ccccc3n3c1c1c2c2ccccc2n1C[S+]([O-])C3` [Compound 20]: the IC50 is over 10 µM in test [2] and 19 nM at Protein Kinase C ("PKC") (setting [3]).
`O=C1NCc2c1c1c3ccccc3n3c1c1c2c2ccccc2n1CS(=O)(=O)C3` [Compound 23]: the inhibition at 45 µg/mL in test [1] stood at 57%. Also, the IC50 in test [2] was 0.9 µM; on Protein Kinase C ("PKC") (setting [3]), 5 nM. The “Mouse Skin (active/inactive by visual evaluation of blister formation)” value with Mouse skin is given as “active”.
Regarding `O=C1NC(=O)c2c1c1c3ccccc3n3c1c1c2c2ccccc2n1CS(=O)(=O)C3` [Compound 26], the IC50 in test [2] was found to be 1.6 µM; on Protein Kinase C ("PKC") (setting [3]) it was 2 nM. Moreover, the “Mouse Skin (active/inactive by visual evaluation of blister formation)” value in the test on Mouse skin is “inactive”.
Consider `C[C@@H]1n2c3ccccc3c3c4c(c5c6ccccc6n(c5c32)[C@H](C)S1(=O)=O)C(=O)NC4=O` [cis-25], for which the IC50 at Protein Kinase C ("PKC") (setting [3]) turned out to be 2.4 nM.
